{"source": "patent US11801266B2", "about": "“Methods of using anti-MIR126 compounds” (CITY OF HOPE, priority 2019, dated 2023)", "key": {"CML LSCs": {"tested_on": "CML LSCs", "assay": "In vivo treatment of CML mice (SCLtTA/BCR-ABL BM cells transplanted into congenic B6 mice)", "set-up": "species or system mouse", "settings": "CML mice, 3 weeks of treatment, followed 60 days after treatment discontinuation", "method": "Next, we transplanted BM cells from SCLtTA/BCR-ABL mice (CD45.2) into congenic B6 mice (CD45.1). Following confirmation of CML development at 4 weeks after transplantation, mice were treated as above with scrRNA, inhibitor, scrRNA+NIL, or inhibitor+NIL for 3 weeks."}, "human BCR-ABL+K562 cells": {"tested_on": "human BCR-ABL+K562 cells", "assay": "NIL treatment of K562 cells: miR-126 staining", "assay_type": "cell-based", "settings": "K562 cells with and without 5 μM NIL", "method": "K562, HUVEC, normal and CML CD34+CD38− cells were cultured and incubated with miR126 SmartFlare RNA probe (EMD Millipore) for 16 h. […] Cells were then washed in 1× phosphate buffered saline (PBS) and fixed in 4% paraformaldehyde for 3 min. Nuclei were counterstained with DAPI and the images were analyzed using a confocal microscope (Carl Zeiss)."}, "[1]": {"tested_on": "BCR-ABL+ primary CD34+ and/or K562 cells", "assay_type": "cell-based, human", "method": "Nuclei were counterstained with DAPI.\n(§1) Proteins were resolved on 10% sodium dodecyl sulfate-polyacrylamide gel electrophoresis (SDS-PAGE) gels and transferred to nitrocellulose membrane. Membranes were sequentially reprobed with primary and secondary antibodies. […] Horseradish peroxidase-conjugated secondary antibodies were from Jackson ImmunoResearch Laboratories (Westgrove, Pa.). Antibody detection was performed using the Superfemto kit (Pierce Biotechnology, Rockford, Ill.). Protein levels were determined by densitometry using Image-Quant software (Amersham Pharmacia Biotech, Piscataway, N.J.)."}, "CML CD34+ cells": {"tested_on": "CML CD34+ cells", "assay": "MAPK/ERK, BCL-2 and apoptosis in NIL-treated CML CD34+ cells", "assay_type": "cell-based, human", "method": "After transduction performed as above, GFP+ cells selected at 48 h were exposed to NIL (2 μM and 5 μM, Novartis) for another 72 h, and analyzed using assays for cell growth, apoptosis, cell cycle, CFC and CFC replating. […] Cell growth was measured by Lumino Glo (Promega). Apoptosis was measured by labeling cells with Annexin V-PE or FITC or APC and 4, 6-diamidino-2-phenylindole (DAPI) (all from BD-PharMingen, San Diego, Calif.) and analyzed by flow cytometry. […] Cells were also exposed to EdU (C10640, Invitrogen) for 2 h and EdU staining was analyzed according to the manufacturer's protocol. Cell proliferation was also measured by CFSE staining (Molecular probes) based on the manufacturer's protocol. For CFC, Lin-CD34+CD38− cells cultured with or without NIL (5 μM) were plated in methylcellulose progenitor culture, and burst-forming unit-erythroid and colony-forming unit-granulocyte and macrophage cells were counted after 14 days. Colony replating assays were performed by collecting and pooling colonies from primary CFC assays and plating 10,000 cells in secondary CFC assays.\nas §1"}, "CML LT-HSCs": {"tested_on": "CML LT-HSCs", "assay": "NIL treatment of miR-126flox/wt/Tie2+ or Tie2− mice transplanted with CML LT-HSCs", "assay_type": "in vivo, mouse", "settings": "NIL 50 mg/kg daily oral gavage for 3 weeks", "method": "Next, we sorted CML LT-HSCs from induced CD45.1/CD45.2 SCLtTA/BCR-ABL mice and transplanted them into CD45.2 miR-126^flox/wt/Tie2+ (heterozygous miR-126 KO allele in ECs) or Tie2− (WT miR-126 allele in ECs) mice. After confirming CML development, we treated the mice with NIL (50 mg/kg, daily by oral gavage) or vehicle for 3 weeks.\nAnimal studies. Inducible transgenic SCLtTA/BCR-ABL mice in the FVB/N background^37,38 were backcrossed to the B6 background (CD45.2) for 10 generations. Transgenic BCR-ABL mice were maintained on tetracycline water at 0.5 g/L. Withdrawal of tetracycline results in expression of BCR-ABL and generation of a CML-like disease in these mice^37,38. Unless otherwise indicated, BCR-ABL expression was induced for 2-3 weeks by tetracycline withdrawal in 6-8 weeks old male and female mice and then BM cells (from both tibias and femurs) were collected for experiments. SCLtTA/BCR-ABL mice (CD45.2, B6) were also bred with CD45.1 B6 mice to produce CD45.1/CD45.2 SCLtTA/BCR-ABL mice as donors. miR-126^flox/flox mice (B6, from Dr. Kuo, Stanford) were crossed with Mx1-cre, Tie2-cre (both from The Jackson Laboratory) and SCLtTA/BCR-ABL mice (all B6) to obtain the following strains: miR-126^flox/flox/Mx1-cre, SCLtTA/BCR-ABL/miR-126^flox/flox/Mx1-cre, miR-126^flox/wt/Tie2-cre and miR-126^flox/flox/Tie2-cre. […]"}, "human CML HSCs": {"tested_on": "human CML HSCs", "assay": "NIL treatment of human CML HSCs: miR-126, PIK3R2, SPRED1 expression and cell cycle", "assay_type": "cell-based", "method": "After transduction performed as above, GFP+ cells selected at 48 h were exposed to NIL (2 μM and 5 μM, Novartis) for another 72 h, and analyzed using assays for cell growth, apoptosis, cell cycle, CFC and CFC replating. Human HSCs and mouse LT-HSCs were also treated with CpG-miR-126 inhibitor or CpG-scrRNA (500 nM), with or without NIL (5 μM), for 72 h and analyzed for cell growth, apoptosis, cell cycle and CFC. Human CML HSCs co-cultured with control or miR-126 KD HUVECs and mouse CML LT-HSCs co-cultured with control or miR-126 KD ECs for 96 h, with or without NIL (5 μM), were also analyzed for cell growth, apoptosis, cell cycle and CFC. Cell growth was measured by Lumino Glo (Promega). Apoptosis was measured by labeling cells with Annexin V-PE or FITC or APC and 4, 6-diamidino-2-phenylindole (DAPI) (all from BD-PharMingen, San Diego, Calif.) and analyzed by flow cytometry. Cell cycle was analyzed by Ki-67-Alexa Fluor 647 (B56, BD) and DAPI labeling based on the manufacturer's protocol. Cells were also exposed to EdU (C10640, Invitrogen) for 2 h and EdU staining was analyzed according to the manufacturer's protocol. Cell proliferation was also measured by CFSE staining (Molecular probes) based on the manufacturer's protocol. For CFC, Lin-CD34+CD38− cells cultured with or without NIL (5 μM) were plated in methylcellulose progenitor culture, and burst-forming unit-erythroid and colony-forming unit-granulocyte and macrophage cells were counted after 14 days. […]\nTo measure the miRNA and mRNA expression, total RNA was extracted using the miRNeasy Mini Kit (Qiagen, Valencia, Calif.). […] BCR-ABL expression in human and mouse samples were measured with primer and probe sequences for BCR-ABL (B3A2 or B2A2), as previously described^46. […]\nK562, HUVEC, normal and CML CD34+CD38− cells were cultured and incubated with miR126 SmartFlare RNA probe (EMD Millipore) for 16 h. […] Nuclei were counterstained with DAPI and the images were analyzed using a confocal microscope (Carl Zeiss)."}, "[2]": {"settings": "CML CD34+ cells, NIL treatment, western blot"}}, "data": [{"molecule": "5′ G*G*T GCA TCG ATG CAGG*G*G* G*G xxxxx mGmUmA mGmAmA mCmCmG mUmAmC mUmCmG mUmCmA mCmUmU mA 3′ (GGTGCATCGATGCAGGGGGGGUAGAACCGUACUCGUCACUUA; phosphorothioate, 2'-O-methyl, linker; (1)..(2) phosphorothioation; (2)..(3) phosphorothioation; (16)..(17) phosphorothioation; (17)..(18) phosphorothioation; (18)..(19) phosphorothioation; (19)..(20) phosphorothioation; (20)..(21) ((CH2)3)5; (20)..(21) Five C3 carbon chain linkers, ((CH2)3)5; modified_base (21)..(21) gm; modified_base (22)..(22) um; modified_base (23)..(23) 2′-O-Methyladenosine; modified_base (24)..(24) gm; modified_b) [scrRNA, CpG ODN linked to scrambled RNA, control oligonucleotide]", "values": [{"measurement": "mice that survived", "setting": "CML LSCs", "value": "all of the mice treated with scrRNA alone died of leukemia"}]}, {"molecule": "Cc1cn(-c2cc(NC(=O)c3ccc(C)c(Nc4nccc(-c5cccnc5)n4)c3)cc(C(F)(F)F)c2)cn1", "note": "[NIL, nilotinib]", "values": [{"measurement": "miR-126 expression", "setting": "human BCR-ABL+K562 cells", "value": "increased"}, {"measurement": "SPRED1 phosphorylation", "setting": "[1]", "value": "de-phosphorylation"}, {"measurement": "binding and co-localization of SPRED1 with RAN", "setting": "[1]", "value": "decreased"}, {"measurement": "formation of RAN/Exp-5/RCC1 complex", "setting": "[1]", "value": "increased"}, {"measurement": "mature miR-126 levels", "setting": "[1]", "value": "increased"}, {"measurement": "pri- and pre-miR-126 levels", "setting": "[1]", "value": "decreased"}, {"measurement": "ratio of pri- and pre-miR-126 to mature miR-126 levels", "setting": "[1]", "value": "decreased"}, {"measurement": "cell survival", "setting": "CML CD34+ cells; CML CD34+ cells, NIL treatment", "value": "promoted survival"}, {"measurement": "BCL-2 expression", "setting": "CML CD34+ cells; [2]", "value": "increased"}, {"measurement": "MAPK/ERK activation", "setting": "CML CD34+ cells; [2]", "value": "enhanced"}, {"measurement": "day of 50 percent survival", "setting": "CML LT-HSCs; Tie2− mice (WT miR-126 in ECs) transplanted with CML LT-HSCs, untreated Tie2− approx. day 60", "value": "~150", "unit": "days"}, {"measurement": "survival at day 150", "setting": "CML LT-HSCs; miR-126flox/wt/Tie2+ mice (heterozygous miR-126 KO in ECs) transplanted with CML LT-HSCs", "value": "all NIL-treated Tie2+ mice were alive"}, {"measurement": "fraction of quiescent cells", "setting": "human CML HSCs; human CML HSCs, 5 μM NIL vs DMSO, cell cycle analysis", "value": "increased"}, {"measurement": "SPRED1 levels", "setting": "human CML HSCs; human CML Lin-CD34+CD38− cells treated with NIL, compared with vehicle alone, QPCR", "value": "decreased"}, {"measurement": "miR-126 expression", "setting": "human CML HSCs; human CML Lin-CD34+CD38− cells, NIL 2 μM or 5 μM, compared with vehicle alone, QPCR and miRNA staining", "value": "increased"}]}, {"molecule": "O=C(NOC[C@H](O)CO)c1ccc(F)c(F)c1Nc1ccc(I)cc1F", "note": "[PD0325901]", "values": [{"measurement": "NIL-induced apoptosis", "setting": "CML CD34+ cells; CML Lin-CD34+ cells, PD0325901 500 nM in combination with NIL, 72 h", "value": "enhanced"}]}]}
